Test results taken from patent publication US5103018A, “Mitomycin derivatives” (Kyowa Hakko Kogyo Kabushiki Kaisha, priority 1986, dated 1992).
In brackets after ≈: the same amount, converted by molar mass. Like-named read-outs stand apart in the source and are kept apart here.

Tests used:
Solubility in water = assay type: physicochemical; conditions: water
Sarcoma 180 solid tumour = experiment: animal or person; assay type: in vivo, mice (ddy strain); conditions: Mus musculus, Sarcoma-180, ip, 168 h, read-out: ED50 ip
Text: (§1) Certain compounds were selected from Compounds I. The following Table 4 indicates anti-tumour activity against Sarcoma 180 solid tumour (ED50), acute toxicity (LD50) and effects on the peripheral leucocytes (WBC4000) of each compound.
(1) Effect against Sarcoma 180 solid tumour:
5×10^6 cells of Sarcoma 180 solid tumour cells were abdominally implanted into male mice of ddy strain. 7 days after this, ascites cells were sampled. The cells were washed once with a sterilized physiological solution of sodium chloride and were used to prepare a cell suspension containing 5×10^7 cells per ml. On each occasion, 0.1 ml of the cell suspension was subcutaneously implanted into the right armpit of a male mouse (ddy strain; body weight 20±2 g). 24 hours after the implantation of the tumour cells, the test compound which was dissolved in a physiological solution of sodium chloride with or without addition of Tween 80 was abdominally administered to each mouse of a group consisting of 5 animals at a does of 0.1-0.2 ml. The anti-tumour activity was determined as follows:
7 days after the implantation, the major axis (a) and the minor axis (b) of the tumour were measured to calculate a value of "a×b^2 /2" which corresponds to the volume of the tumour. The anti-tumour activity was expressed by T/C viz. the ratio of the volume of the tumours (T) of the group of animals administered with the test compound to the corresponding volume of tumours (C) of the untreated animals.
(2) Determination of ED50 :
The term ED50 denotes the administered amount needed for reducing the volume of Sarcoma 180 solid tumours in the animals to 50% on the basis of the corresponding volume of Sarcoma 180 solid tumours in control (untreated) animals.
On graph paper, T/C was indicated by an arithmetic scale on the longitudinal axis and the administered amount of test compound was indicated by a logarithmic scale on the lateral axis.

in vivo = assay type: in vivo, mice (ddy strain); conditions: mouse, in vivo, ip; read-out: (WBC4000/ED50)* = (WBC4000/ED50)/[(WBC4000/ED50) of MMC1]
Procedure: as §1
(4) Effect upon the number of the peripheral leucocytes:
Sarcoma 180 solid tumour cells (5×10^6) were subcutaneously implanted into the right armpit of each mouse (body weight 20±2 g) of a group consisting of 5 male mice (ddy strain). 24 hours after implantation,a test compound was abdominally administered to each mouse. 4 days later, blood (each 0.02 ml) was collected from the suborbital plexus vein of each tumour-carrying mouse. The collected sample of blood was dispersed in 9.98 ml of Cell-kit Seven solution. One drop of saponin solution was added to the sample to dissolve erythrocytes and then a microcell counter was used to measure the number of leucocytes. On graph paper, the number of leucocytes was indicated on the y-axis by an arithmetic scale and the does of the test compound was indicated on the x-axis by a logarithmic scale.
The relationship between the number of peripheral leucocytes and the dosage of the test compound was plotted to obtain WBC4000 viz. the dosage corresponding to […] per mm^3 (about half of the number of leucocytes of normal mice).

[1] = test system: Proteus vulgaris ATCC 6897; experiment: Minimum inhibitory concentration, agar dilution method, PV; assay type: cell-based
Text: (§2) Certain Compounds I were selected. Table 3 indicates their anti-bacterial activities in terms of their minimum inhibitory concentration (μg/ml), determined by the agar dilution method effected at a pH of 7.0. In this table, the microorganisms used are abbreviated as follows:
PV: Proteus vulgaris ATCC 6897

[2] = test system: Klebsiella pneumoniae ATCC 10031; experiment: microbe, parasite or virus in culture; assay type: cell-based; conditions: ATCC10031, pH 7, read-out: minimum inhibitory concentration, KP
Text: Certain Compounds I were selected. […] In this table, the microorganisms used are abbreviated as follows:
KP: Klebsiella pneumoniae ATCC 10031

[3] = test system: Streptococcus faecalis ATCC 10541; experiment: Minimum inhibitory concentration, agar dilution method, SF; assay type: cell-based; conditions: Enterococcus faecalis
Text: as §2
SF: Streptococcus faecalis ATCC 10541

Escherichia coli ATCC 26 = experiment: Minimum inhibitory concentration, agar dilution method, EC; assay type: cell-based
Text: as §2
EC: Escherichia coli ATCC 26

[4] = test system: Staphylococcus aureus ATCC 6583P; experiment: Minimum inhibitory concentration, agar dilution method, SA; assay type: cell-based; conditions: ATCC6583P
Text: as §2
SA: Staphylococcus aureus ATCC 6583P

Acute toxicity = assay type: in vivo, mice (ddy); conditions: mouse, in vivo, ip; for LD50 at 336 h: ddy mice, single i.p., 14 days, Behren Korber's method; for selectivity ratio: read-out: (C.I.)* = (LD50/ED50)/[(LD50/ED50) of MMC1]
Procedure: as §1
Each animal of the test group consisting of 5 ddy mice was once administered (i.p.) with a test compound. […] The LD50 was determined by Behren Korber's method.

P388 Leukemia = experiment: Effect upon Leukemia P 388; assay type: in vivo, mouse (CDF1); conditions: dose 50 mg/kg, single i.p., 33 days
Procedure: (5) Effect upon Leukemia P 388:
Ascites cells were collected from P388 Leukemia-carrying mouse (DBA/2) 7 days after the implantation. The number of the cells of P388 Leukemia in the sample was counted. A physiological solution of sodium chloride was sterilized and used to prepare a cell suspension containing 5×10^6 tumour cells per ml. On each occasion, 0.2 ml of the suspension containing 1×10^6 cells was implanted into the abdominal cavity of each mouse (CDF1; body weight 20~25 g). 24 hours after implantation, the test compound was once given to each mouse of a test group consisting of 6 mice by abdominal injection.
The activity of the test samples was determined by the ratio of the average survival days of the treated animals to the average survival days of untreated animals viz. ILS % (Increased Life Span).

[5] = Proteus vulgaris, ATCC6897, pH 7, read-out: minimum inhibitory concentration, PV
[6] = ATCC10541, pH 7, read-out: minimum inhibitory concentration, SF
[7] = Escherichia coli, ATCC26, pH 7, read-out: minimum inhibitory concentration, EC
[8] = Staphylococcus aureus, pH 7, read-out: minimum inhibitory concentration, SA

| SMILES | solubility (Solubility in water) [mg/mL] | ED50 (Sarcoma 180 solid tumour) [mg/kg] | selectivity ratio (in vivo) | MIC [1, 5] [µg/mL] | MIC [2] [µg/mL] | MIC [3, 6] [µg/mL] | MIC (Escherichia coli ATCC 26; [7]) [µg/mL] | MIC [4, 8] [µg/mL] | LD50 at 336 h (Acute toxicity) [mg/kg] | selectivity ratio (Acute toxicity) | ILS* (ratio of ILS % to that of mitomycin C) (P388 Leukemia) | MIC ([1]; ATCC6897, agar dilution method, pH 7.0, Proteus vulgaris, read-out: minimum inhibitory concentration, PV) [µg/mL] | MIC ([3]; ATCC10541, agar dilution method, pH 7.0, Streptococcus faecalis, read-out: minimum inhibitory concentration, SF) [µg/mL] | MIC (Escherichia coli ATCC 26; ATCC26, agar dilution method, pH 7.0, Escherichia coli, read-out: minimum inhibitory concentration, EC) [µg/mL] | MIC ([4]; agar dilution method, pH 7.0, Staphylococcus aureus, read-out: minimum inhibitory concentration, SA) [µg/mL] |
| --- | --- | --- | --- | --- | --- | --- | --- | --- | --- | --- | --- | --- | --- | --- | --- |
| CO[C@@]12[C@H](COC(N)=O)C3=C(C(=O)C(C)=C(NCCSSCCNC(=O)[C@@H](N)CCC(=O)O)C3=O)N1C[C@@H]1N[C@@H]12 [Compound 9, 7-N-[2-[[2-(N^2 -L-glutamino)ethyl]dithio]ethyl]mitomycin C] | > 20 | 7.7 | – | – | – | – | – | – | – | – | – | – | – | – | – |
| CO[C@@]12[C@H](COC(N)=O)C3=C(C(=O)C(C)=C(NCCSSCCCNC(=O)CC[C@H](N)C(=O)O)C3=O)N1C[C@@H]1N[C@@H]12 [Compound 4, 7-N-[2-[[3-(N^5 -L-glutamino)propyl]dithio]ethyl]mitomycin C] | > 20 | 5.1 | 1.27 | 3.1 (≈ 5.06 µM) | 0.8 (≈ 1.31 µM) | 3.1 (≈ 5.06 µM) | 250 (≈ 408 µM) | 1.6 (≈ 2.61 µM) | 22.5 | 1.52 | – | – | – | – | – |
| CC1=C(NCCSSCCNC(=O)CC[C@H](N)C(=O)O)C(=O)C2=C(C1=O)N1C[C@H]3[C@H](N3C)[C@]1(O)[C@H]2COC(N)=O (stereo partly drawn) [Compound 2, 7-N-[2-[[2-(N^5 -L-glutamino)ethyl]dithio]ethyl]mitomycin D] | > 5 | 18 | 2.14 | 25 (≈ 41.8 µM) | > 100 | 100 (≈ 167 µM) | – | 50 (≈ 83.5 µM) | 90 | 1.55 | > 1.34 | – | – | – | – |
| CO[C@@]12[C@H](COC(N)=O)C3=C(C(=O)C(C)=C(N)C3=O)N1C[C@@H]1N[C@@H]12 [MM-C, mitomycin C, reference compound] | – | – | – | – | – | – | – | – | – | – | – | 0.02 (≈ 0.0598 µM) | 0.08 (≈ 0.239 µM) | 10 (≈ 29.9 µM) | 0.04 (≈ 0.12 µM) |
| CO[C@@]12[C@H](COC(N)=O)C3=C(C(=O)C(C)=C(NCCSSCCNC(=O)/C=C(C)/C=C/C=C(C)/C=C/C4=C(C)CCCC4(C)C)C3=O)N1C[C@@H]1N[C@@H]12 [Compound 15] | – | 7.4 | 3 | 1.3 (≈ 1.73 µM) | 2.5 (≈ 3.32 µM) | 0.63 (≈ 0.838 µM) | – | 0.078 (≈ 0.104 µM) | 16.9 | 0.82 | – | – | – | – | – |
| CO[C@@]12[C@H](COC(N)=O)C3=C(C(=O)C(C)=C(NCCSSCc4cn([C@H]5C[C@H](O)[C@@H](CO)O5)c(=O)[nH]c4=O)C3=O)N1C[C@@H]1N[C@@H]12 [Compound 39, 7-N-[2-[[(2'-deoxyuridin-5-yl)methyl]dithio]ethyl]mitomycin C] | – | 34.7 | 1.5 | – | – | – | – | – | 75 | 1.37 | 1.83 | – | – | – | – |
| CO[C@@]12[C@H](COC(N)=O)C3=C(C(=O)C(C)=C(NCCSSCCSC(C)=O)C3=O)N1C[C@@H]1N[C@@H]12 [Compound 33, 7-N-[2-[[2-(acetylthio)ethyl]dithio]ethyl]mitomycin C] | – | 5.6 | 1.27 | 0.63 (≈ 1.19 µM) | 0.63 (≈ 1.19 µM) | 0.039 (≈ 0.0738 µM) | > 40 | 0.078 (≈ 0.148 µM) | 4.7 | 0.36 | – | – | – | – | – |
